What all share (assay type): physicochemical
Data set [1] in a line: Stability test (illumination, high temperature, high humidity; XRPD and HPLC purity). The following applies: for Initial purity (day 0): day 0, before stress, HPLC; for crystal transformation (XRPD): 10 days. Here is the method: Illumination stability: samples of the crystal form C and the crystal form D of the compound of the formula (I) (respectively prepared in Example 1 and Example 2) were respectively taken and placed at 25° C. under an illumination condition of 4500 Lux for 10 days, and samples were taken respectively on day 5 and day 10 at fixed time points to determine XRPD patterns of the crystal forms C and D and the content of N-(4-(1-(2,6-difluorobenzyl)-5-((dimethylamino)methyl)-3-(6-methoxy-3-pyridazinyl)-2,4-dioxo-1,2,3,4-tetrahydrothieno[2,3-d]pyrimidin-6-yl)phenyl)-N′-methoxyurea in the crystal forms C and D, which were compared with those of the samples on day 0. High temperature stability: samples of the crystal form C and the crystal form D of the compound of the formula (I) (respectively prepared in Example 1 and Example 2) were respectively taken and placed at 60° C. for 10 days, and samples were taken respectively on day 5 and day 10 at fixed time points to determine XRPD patterns of the crystal forms C and D and the content of N-(4-(1-(2,6-difluorobenzyl)-5-((dimethylamino)methyl)-3-(6-methoxy-3-pyridazinyl)-2,4-dioxo-1,2,3,4-tetrahydrothieno[2,3-d]pyrimidin-6-yl)phenyl)-N′-methoxyurea in the crystal form C and the crystal form D, which were compared with those of the samples on day 0. High humidity stability: samples of the crystal form C and the crystal form D of the compound of the formula (I) (respectively prepared in Example 1 and Example 2) were respectively taken and placed at 40° C. at 75% RH for 10 days, and samples were taken respectively on day 5 and day 10 at fixed time points to determine XRPD patterns of the crystal forms C and D and the content of N-(4-(1-(2,6-difluorobenzyl)-5-((dimethylamino)methyl)-3-(6-methoxy-3-pyridazinyl)-2,4-dioxo-1,2,3,4-tetrahydrothieno[2,3-d]pyrimidin-6-yl)phenyl)-N′-methoxyurea in the crystal form C and the crystal form D, which were compared with those of the samples on day 0. A specific stability test method can refer to the method in appendix XI C of Part II of Chinese Pharmacopoeia (2015 edition); the purity detection adopts an HPLC method, and the purity can be determined by an external standard method with reference to the method in appendix VD of Chinese Pharmacopoeia (2015 edition) by using the samples on day 0 as a reference substance. instrument: high performance liquid chromatograph (model: Thermo U3000) chromatographic column: Agilent C18 column (5 μm, 150 mm×4.6 mm) mobile phase composition and gradient elution program: [table] detection wavelength: 254.4 nm; flow rate: 1 ml/min; sample size:15 μL; column temperature: 30° C.

Assay in data set [2]: as above
Conditions: high humidity (25° C., 92.5% RH), 10 days.

Data set [3] is described as follows: Hygroscopicity test, dynamic vapor sorption (DVS). The following applies: for hygroscopicity, in words: forms C and D compared with crystal form A.
Data set [4] can be described thus: Saturation solubility in water (HPLC). Conditions: for Saturation solubility: in water, room temperature, stirred for 12 hours, excess solid, HPLC; for solubility, in words: saturation solubility, forms C and D compared with crystal form A. From the text:
Samples for test: a crystal form C and a crystal form D of a compound of a formula (I), their preparation methods being respectively shown in Example 1 and Example 2, a preparation method of the crystal form A of the compound of the formula (I) being shown in Comparative example 1.
Test method: the crystal form A, the crystal form C, and the crystal form D of the compound of the formula (I) were respectively taken, to measure their saturation solubility in water, a specific method was: a suitable amount of the samples for test were respectively taken, and put into a […] sample bottle, 3 ml of a water solution was added, the solid was excess, and the obtained solution was placed at room temperature and stirred for 12 hours, and solubility in water was measured by using an HPLC method. The operation conditions of HPLC are as follows:
instrument: high performance liquid chromatograph (model: Thermo U3000)
chromatographic column: Agilent C18 column (5 μm, 150 mm×4.6 mm)
mobile phase composition and gradient elution program: […]
Detection wavelength: 254.4 nm;
column temperature: 30° C.

[5] abbreviates: 25° C., 4500 Lux (illumination), listed as crystal form C.
The mark [6] stands for this setting: 40° C., 75% RH (high humidity), listed as crystal form C.
Where [7] appears, read: 60° C. (high temperature), listed as crystal form C.
Where [8] appears, read: 25° C., 4500 Lux (illumination), listed as crystal form D.
The mark [9] stands for this setting: 40° C., 75% RH (high humidity), listed as crystal form D.
The mark [10] stands for this setting: 60° C. (high temperature), listed as crystal form D.

SMILES strings stand for the structures.

Consider `CONC(=O)Nc1ccc(-c2sc3c(c2CN(C)C)c(=O)n(-c2ccc(OC)nn2)c(=O)n3Cc2c(F)cccc2F)cc1` [Crystal form C, N-(4-(1-(2,6-difluorobenzyl)-5-((dimethylamino)methyl)-3-(6-methoxy-3-pyridazinyl)-2,4-dioxo-1,2,3,4-tetrahydrothieno[2,3-d]pyrimidin-6-yl)phenyl)-N′-methoxyurea], for which the “Purity change on day 10” value in data set [1] (setting [5]) is recorded as 0.49%; in data set [1] (setting [6]), 3.33%; in data set [1] (setting [7]), 2.58%. In addition, the “Purity on day 5” value in data set [1] (setting [5]) is 98.99%; in data set [1] (setting [6]) it was 96.88%; in data set [1] (setting [7]), 97.89%. Also, the “Purity on day 10” value in data set [1] (setting [5]) worked out at 98.84%; in data set [1] (setting [6]), 96%; in data set [1] (setting [7]), 96.75%. Also, in data set [1] (listed as crystal form C), the “Initial purity (day 0)” value was 99.33%. Besides, the “crystal transformation (XRPD)” value in data set [1] (high temperature (60° C.)) was “no crystal transformation”; in data set [1] (strong illumination (25° C., 4500 Lux)) it was “no crystal transformation”; in data set [2] it was “no crystal transformation”. Besides, the “hygroscopicity, in words” value in data set [3] (listed as crystal form C) is on record as “significantly decreased”. The compound also displayed a Saturation solubility in data set [4] (listed as crystal form C) of 101.75 µg/mL. In addition, the “solubility, in words” value in data set [4] (listed as crystal form C) is reported as “significantly improved”.

Take `CONC(=O)Nc1ccc(-c2sc3c(c2CN(C)C)c(=O)n(-c2ccc(OC)nn2)c(=O)n3Cc2c(F)cccc2F)cc1` [Crystal form D, N-(4-(1-(2,6-difluorobenzyl)-5-((dimethylamino)methyl)-3-(6-methoxy-3-pyridazinyl)-2,4-dioxo-1,2,3,4-tetrahydrothieno[2,3-d]pyrimidin-6-yl)phenyl)-N′-methoxyurea]: in data set [1] (setting [8]), the “Purity change on day 10” value was determined as 0.50%, the “Purity on day 5” value turned out to be 98.1% and the “Purity on day 10” value turned out to be 98.57%. For the same compound, in data set [1] (setting [9]), the “Purity change on day 10” value turned out to be 1.86%, the “Purity on day 5” value amounted to 97.88% and the “Purity on day 10” value is 97.21%. In addition, in data set [1] (setting [10]), the “Purity change on day 10” value is given as 2.56%, the “Purity on day 5” value is given as 96.25% and the “Purity on day 10” value is reported as 96.51%. In addition, in data set [1] (listed as crystal form D), the “Initial purity (day 0)” value is given as 99.07%. Also, the “hygroscopicity, in words” value in data set [3] (listed as crystal form D) was “significantly decreased”. Further, in data set [4] (listed as crystal form D), the Saturation solubility was determined as 87.21 µg/mL and the “solubility, in words” value is “significantly improved”.

For `CONC(=O)Nc1ccc(-c2sc3c(c2CN(C)C)c(=O)n(-c2ccc(OC)nn2)c(=O)n3Cc2c(F)cccc2F)cc1` [Crystal form A, N-(4-(1-(2,6-difluorobenzyl)-5-((dimethylamino)methyl)-3-(6-methoxy-3-pyridazinyl)-2,4-dioxo-1,2,3,4-tetrahydrothieno[2,3-d]pyrimidin-6-yl)phenyl)-N′-methoxyurea], the “moisture absorption (hygroscopy gain)” value in data set [3] (25° C., humidity gradually increased from 0 to 50% RH) turned out to be 0.57%. The “hygroscopicity (hygroscopy gain)” value in data set [3] (25° C., humidity gradually increased from 0 to 90% RH) is given as 25.84%. In data set [3] (listed as crystal form A), the “hygroscopicity, in words” value is reported as “high hygroscopicity”. For the same compound, the Saturation solubility in data set [4] was determined as 28.50 µg/mL. For the same compound, in data set [4] (listed as crystal form A), the “solubility, in words” value is recorded as “low solubility”.

For the origin of these results see patent US12497409B2, “Crystal form of gonadotropin releasing hormone antagonist, preparation method therefor, and use thereof” (Shenzhen Rentai Pharmatech Ltd., priority 2019, dated 2025).
